Test results: patent US20180353460A1, “METHODS OF TREATING UROLOGICAL DISORDERS USING SARMs” (priority 2014, published 2018)
Several values for one entry are separate records, joined by “and”; a condition that tells them apart may be missing. Equal entries are not always repeated.

How the values were obtained:
[1] = tested on: levator ani muscle, urethra and endometrium; experiment: Proof of concept clinical study: quantitative pelvic MRI; assay type: in vivo, human
Description: Secondary Objectives: • To describe the effect of 12 weeks of treatment of Compound IX on the number of voids/day as assessed by the 3 days voiding diary. […] See Tables 2 (individual subject data) and Tables 4-6 (mean pad weight data for sites 1, 2, and 3, respectively), and FIG. 17 for mean and median reductions in pad weights from baseline to week 12 (across all sites). • To describe the effect of 12 weeks of treatment of Compound IX on SUI as assessed by the Urethral Pressure Profile (UPP). The UPP assessment was removed from the protocol because it is invasive and not standard of care. […] See summary data for all subjects across the 3 sites reported in Table 7 and FIGS. 13A and 13B. • Described is the effect of 12 weeks of treatment of Compound IX on subject reported impression of stress urinary incontinence severity as assessed by the Patient Global Impression of Severity Scale (PGI-S). See summary data for all subjects across the 3 sites reported in FIG. 12A. • Described is the effect of 12 weeks of treatment of Compound IX on subject reported impression of improvement as assessed by the Patient Global Impression of Improvement Scale (PGI-I). See summary data for all subjects across the 3 sites reported in FIG. 12B. • Described is the effect of 12 weeks of treatment of Compound IX on subject reported urogenital distress as assessed by the Urinary Distress Inventory Questionnaire (UDI-6). See summary data for all subjects across of 3 sites reported in Table 7 and FIG. 12C. • Described is the effect of 12 weeks of treatment of Compound IX on subject reported impact of urinary incontinence on daily life as assessed by the Incontinence Impact Questionnaire (IIQ-7). See summary data for all subjects across the 3 sites reported in Table 7 and FIG. 12D. • Described is the effect of 12 weeks of treatment of Compound IX on subject reported sexual function as indicated on the completion of the Female Sexual Function Index Questionnaire (FSFI). See summary data for all subjects across the 3 sites reported in Table 7 and FIG. 15. • Described is the effect of 12 weeks of treatment of Compound IX on pelvic floor muscles as measured by MRI. See FIG. 11 wherein the pelvic MRI for one representative subject on trial is reported at baseline and at 12 weeks, FIG. 16 wherein the pelvic MRI's for three representative subjects on trial are reported at baseline and at 12 weeks, and Example 19 and Table 13 which provide individual measurements of levator ani thickness, inner and outer diameter of the urethra, and endometrial thickness, and mean changes in the same from baseline to week 12.
Quantitative MRI was used to visualize the pelvic floor of all post-menopausal subjects with SUI.
In a continuation of the same study from Example 3, quantitative MRI was used to visualize the pelvic floor of 17 post-menopausal subjects with SUI. MRI was used to visualize and measure the mean thickness of the levator ani muscle, inner and outer diameter of the urethra, and the endometrial thickness of patients on trial at baseline and at the MRI visits approximately 12 weeks after baseline (exact times between baseline and second MRI are given). All data analysis used a significance value of 0.05 with one-tailed paired t-test. The mean change in each measurement and the statistical significance calculation for each value are given below: […]

human subjects = experiment: Safety profile from other clinical trials (treatment related adverse events); assay type: in vivo
Protocol: Described is the safety profile of Compound IX 3 mg PO daily in subjects with SUI. See Table 8 which is historical data from other clinical trials establishing the safety profile of Compound IX in human subjects. See also the lack of increase in endometrial thickness in Example 19.
For the PGI-S measure, 12 patients reported symptoms as “moderate” or “severe” at baseline; whereas only 3 patients reported “moderate” symptoms and no patients reported “severe” at 12 weeks (FIG. 12A).
Mean stress leaks decreased by 81 percent from baseline over 12 weeks (5.17 leaks/day at baseline to 1.0 leaks/day at week 12), and the reductions in daily stress leaks following completion of treatment have been sustained as subjects are being followed for up to 7 months post-treatment to assess the durability of treatment effect (0.63 leaks/day at 40 weeks (7 months post-treatment) in the first nine subjects). No subject has relapsed to their baseline levels. Urge urinary incontinence was also observed in 11 subjects, and Compound IX produced a 68% reduction from baseline over 12 weeks in these patients, which was also observed to be durable for at least 7 months (N=7). […] All were consistent with AR pharmacology and previous clinical trials with Compound IX. Based on the results from this Phase 2 proof-of-concept study with Compound IX, a randomized, placebo-controlled Phase 2 clinical trial to evaluate the change in frequency of daily stress urinary incontinence episodes following 12 weeks of treatment was initiated. The trial will evaluate the safety and efficacy of Compound IX (1 mg and 3 mg) compared with placebo in postmenopausal women with SUI.

levator ani muscle = experiment: Levator ani muscle weight in castrated rats treated subcutaneously for 14 days; assay type: in vivo, rat; settings: castrated Sprague Dawley rats, subcutaneous, 3 mg/day
Description: At sacrifice, organs were weighed and expressed as raw organ weights. Values are expressed as average±S.D. Increased size and strength of pelvic floor muscles is one mechanism by which SARMs are believed to affect UI.
At sacrifice, organs were weighed and expressed as raw organ weights. Values are expressed as average±S.D.

[2] = 17 subjects, baseline to about week 12
[3] = individual patients, about 12 weeks

In the case of C[C@](O)(COc1ccc(C#N)cc1)C(=O)Nc1ccc(C#N)c(C(F)(F)F)c1 [Compound IX, (S)—N-(4-Cyano-3-(trifluoromethyl)phenyl)-3-(4-cyanophenoxy)-2-hydroxy-2-methylpropanamide], the “mean change in levator ani muscle thickness” value ([1]; 17 subjects, baseline 4.79 mm to week 12, p=0.006) was 1.15 mm, the “mean change in urethra inner diameter” value [1, 2] was 0.07 cm and the “mean change in urethra outer diameter” value [1, 2] was 0.07 cm. For the same compound, the “Endometrial stripe, follow up MRI” value [1, 3] was 2 mm (9×) and 3 mm (2×) and 5 mm and 4 mm (2×), the “Mean levator ani (LA) thickness at the level of the proximal urethra, follow up MRI” value [1, 3] was 4 mm (3×) and 5 mm (3×) and 6 mm (4×) and 1 mm and 6.5 mm and 8 mm and 10.5 mm and 7 mm (2×) and 10 mm and the “Urethra inner diameter, follow up MRI” value [1, 3] was 1.4 cm (2×) and 1.1 cm (3×) and 1.2 cm (2×) and 1 cm (4×) and 0.9 cm (2×) and 1.3 cm (4×). For the same compound, the “Urethra outer diameter, follow up MRI” value [1, 3] was 1.7 cm (2×) and 1.6 cm (5×) and 1.8 cm (3×) and 1.4 cm (2×) and 1.2 cm and 2 cm and 1.9 cm and 1.3 cm (2×), the “mean increase in inner urethral muscle diameter” value ([1]; week 12, baseline 10.7 mm, p=0.002) was 0.7 mm and the “mean increase in outer urethral muscle diameter” value ([1]; week 12, baseline 15.4 mm, p=0.0003) was 0.7 mm. For the same compound, the “Abdominal Pain, figure in parentheses (percent of subjects)” value (human subjects; N = 896) was “(0.8)”, the “Abdominal Pain, number of subjects” value (human subjects; N = 896) was 7 and the “Alanine Aminotransferase Increased, figure in parentheses (percent of subjects)” value (human subjects; N = 896) was “(2.1)”. The “Alanine Aminotransferase Increased, number of subjects” value (human subjects; N = 896) was 19, the “Any Treatment Related Adverse Event, figure in parentheses (percent of subjects)” value (human subjects; N = 896) was “(24.4)” and the “Any Treatment Related Adverse Event, number of subjects” value (human subjects; N = 896) was 219. For the same compound, the “Back pain, figure in parentheses (percent of subjects)” value (human subjects; N = 896) was “(1.5)”, the “Back pain, number of subjects” value (human subjects; N = 896) was 13 and the “Constipation, figure in parentheses (percent of subjects)” value (human subjects; N = 896) was “(1.3)”. The “Constipation, number of subjects” value (human subjects; N = 896) was 12, the “Diarrhea, figure in parentheses (percent of subjects)” value (human subjects; N = 896) was “(2.1)” and the “Diarrhea, number of subjects” value (human subjects; N = 896) was 19. The “Dizziness Postural, figure in parentheses (percent of subjects)” value (human subjects; N = 896) was “(0.6)”, the “Dizziness Postural, number of subjects” value (human subjects; N = 896) was 5 and the “Dizziness, figure in parentheses (percent of subjects)” value (human subjects; N = 896) was “(2.0)”. For the same compound, the “Dizziness, number of subjects” value (human subjects; N = 896) was 18, the “Dyspnea, figure in parentheses (percent of subjects)” value (human subjects; N = 896) was “(0.9)” and the “Dyspnea, number of subjects” value (human subjects; N = 896) was 8. For the same compound, the “Fatigue, figure in parentheses (percent of subjects)” value (human subjects; N = 896) was “(0.9)”, the “Fatigue, number of subjects” value (human subjects; N = 896) was 8 and the “Headache, figure in parentheses (percent of subjects)” value (human subjects; N = 896) was “(5.7)”. The “Headache, number of subjects” value (human subjects; N = 896) was 51, the “Hot Flush, figure in parentheses (percent of subjects)” value (human subjects; N = 896) was “(0.7)” and the “Hot Flush, number of subjects” value (human subjects; N = 896) was 6. For the same compound, the “Hyperhidrosis, figure in parentheses (percent of subjects)” value (human subjects; N = 896) was “(1.0)”, the “Hyperhidrosis, number of subjects” value (human subjects; N = 896) was 9 and the “Insomnia, figure in parentheses (percent of subjects)” value (human subjects; N = 896) was “(0.6)”. The “Insomnia, number of subjects” value (human subjects; N = 896) was 5, the “Muscle Spasms, figure in parentheses (percent of subjects)” value (human subjects; N = 896) was “(0.7)” and the “Muscle Spasms, number of subjects” value (human subjects; N = 896) was 6. The “Myalgia, figure in parentheses (percent of subjects)” value (human subjects; N = 896) was “(0.7)”, the “Myalgia, number of subjects” value (human subjects; N = 896) was 6 and the “Nausea, figure in parentheses (percent of subjects)” value (human subjects; N = 896) was “(3.0)”. For the same compound, the “Nausea, number of subjects” value (human subjects; N = 896) was 27, the “Pain in Extremity, figure in parentheses (percent of subjects)” value (human subjects; N = 896) was “(1.2)” and the “Pain in Extremity, number of subjects” value (human subjects; N = 896) was 11. For the same compound, the “Pruritus, figure in parentheses (percent of subjects)” value (human subjects; N = 896) was “(1.0)”, the “Pruritus, number of subjects” value (human subjects; N = 896) was 9 and the “Rash, figure in parentheses (percent of subjects)” value (human subjects; N = 896) was “(0.6)”. The “Rash, number of subjects” value (human subjects; N = 896) was 5, the “Somnolence, figure in parentheses (percent of subjects)” value (human subjects; N = 896) was “(1.0)” and the “Somnolence, number of subjects” value (human subjects; N = 896) was 9. The “Vomiting, figure in parentheses (percent of subjects)” value (human subjects; N = 896) was “(1.3)”, the “Vomiting, number of subjects” value (human subjects; N = 896) was 12 and the “general safety and tolerability” value (human subjects; about 1,200 individuals, doses 0.1 mg to 100 mg) was “generally safe and well tolerated”. For the same compound, the “levator ani muscle weight” value (levator ani muscle) was “elicits hypertrophy of the levator ani muscle”.
